Data set [1] deals with B. anthracis (32F2 Sterne).
Data set [2] deals with multi-drug resistant strain S. aureus.
Data set [3] deals with ampicillin- and streptomycin-resistant E. coli (D31). Conditions: for MIC50 E. coli D31: salt not stated.
Data set [4] relates to Acinetobacter. baumannii (ATCC BAA-747).
In another data set the test system is fresh sheep erythrocytes. In words: hemolytic assay. Conditions: sheep erythrocytes, 37° C., 30 minutes. It is filed as cell-based. The method, then: Hemolytic activity of model peptides was assessed on fresh sheep erythrocytes (Fitzgerald Inc., Concord, Mass.). […] The resulting supernatant was diluted by a factor of 40 in distilled water. The absorbances of the supernatant at λ=540 nm (OD540) were measured in the UV Spectrophotometer. […] Hemolytic index (HI) was defined as HI═HD50/IC50.

The subject of a further data set is E. coli RP437 biofilms. In words: biofilm assay on stainless steel coupons with LIVE/DEAD staining. The settings on record: for Biofilm coefficients: Dead cells / Biofilm coefficients: Live cells / Biofilm coefficients: Total biofilms: 24 hours. It is filed as cell-based. The method, then: The stainless steel (S.S.) coupons were polished using a fine 3M SandBlaster sandpaper, then autoclaved for sterilization. […] For all the treatments, duplicate coupons were tested. To analyze the E. coli biofilms using fluorescence microscopy, the biofilms were stained with […] bacterial viability kit (Cat# L7012, Invitrogen Corporation, California). Each S.S. coupon was washed gently by dipping vertically in 0.85% NaCl buffer three times (change to fresh buffer after each dipping). Then, they were soaked in 1 mL of 0.85% NaCl buffer containing 3 μl of staining component A and B (1:4) in the dark for 15 mins. Images were taken by AXIO Imager.M1 (Carl Zeiss, German). Five images were taken for each sample. Data were obtained and are presented in Table 3, below, as well as in FIG. 5.

In brackets after ≈: the same amount, converted by molar mass. Like-named read-outs stand apart in the source and are kept apart here. Where a SMILES comes first, the peptide text is derived from it. Where no end group is shown, it is not given here. Side-chain parts run from the residue outwards. [ ]: non-standard residue; d: D form. The star is where a group is joined. Lys(α,ε-(ArgTrp)2) = N=C(N)NCCC[C@H](N)C(=O)N[C@@H](Cc1c[nH]c2ccccc12)C(=O)NCCCC[C@H](NC(=O)[C@H](Cc1c[nH]c2ccccc12)NC(=O)[C@@H](N)CCCNC(=N)N)C(=O)*; NHBn = c1ccc(CN*)cc1; OBn = c1ccc(CO*)cc1; X1 = CCCCCCCCCN*; βAla = NCCC(=O)O

Turning to `N=C(N)NCCC[C@H](N)C(=O)N[C@@H](Cc1c[nH]c2ccccc12)C(=O)NCCCC[C@H](NC(=O)[C@H](Cc1c[nH]c2ccccc12)NC(=O)[C@@H](N)CCCNC(=N)N)C(=O)NCCCC[C@H](NC(=O)[C@H](CCCCNC(=O)[C@H](Cc1c[nH]c2ccccc12)NC(=O)[C@@H](N)CCCNC(=N)N)NC(=O)[C@H](Cc1c[nH]c2ccccc12)NC(=O)[C@@H](N)CCCNC(=N)N)C(=O)NCCC(=O)NCc1ccccc1` [(RW)4D-Benzyl amine] (H-RWK([Trp-Arg])K(Lys(α,ε-(ArgTrp)2))[βAla]-NHBn), in [1], the “MIC50 B. anthracis” value came out at 34.8 mg/L (≈ 18 µM). Besides, the “MIC50 B. subtilis” value in the data set with B. Subtilis (ATCC 6633) (ATCC 6633) came out at 5.0 mg/L (≈ 2.59 µM). Further, the “MIC50 S. aureus” value in [2] (salt not stated) was 37.8 mg/L. In data set [3], the “MIC50 E. coli D31” value was 21.3 mg/L. Also, the “MIC50 A. baumannii” value in [4] is 121 mg/L (≈ 62.6 µM). Further, the “MIC50 E. coli” value against E. coli was found to be 12.8 mg/L (≈ 6.62 µM).
Take `N=C(N)NCCC[C@H](N)C(=O)N[C@@H](Cc1c[nH]c2ccccc12)C(=O)NCCCC[C@H](NC(=O)[C@H](Cc1c[nH]c2ccccc12)NC(=O)[C@@H](N)CCCNC(=N)N)C(=O)NCCCC[C@H](NC(=O)[C@H](CCCCNC(=O)[C@H](Cc1c[nH]c2ccccc12)NC(=O)[C@@H](N)CCCNC(=N)N)NC(=O)[C@H](Cc1c[nH]c2ccccc12)NC(=O)[C@@H](N)CCCNC(=N)N)C(=O)NCCC(=O)OCc1ccccc1` [(RW)4D-Benzyl ester] (H-RWK([Trp-Arg])K(Lys(α,ε-(ArgTrp)2))[βAla]-OBn): the “MIC50 B. anthracis” value in data set [1] turned out to be 34.2 mg/L (≈ 17.7 µM). Also, in the data set on B. Subtilis (ATCC 6633) (ATCC 6633), the “MIC50 B. subtilis” value is 6.8 mg/L (≈ 3.52 µM). In addition, the “MIC50 S. aureus” value in data set [2] (salt not stated) was 19.6 mg/L. In addition, the “MIC50 E. coli D31” value in data set [3] worked out at 29.7 mg/L. Further, the “MIC50 A. baumannii” value in data set [4] is 78.7 mg/L (≈ 40.7 µM). For the same compound, the “MIC50 E. coli” value against E. coli worked out at 14.3 mg/L (≈ 7.4 µM).
Turning to `CCCCCCCCCNC(=O)CCNC(=O)[C@H](CCCCNC(=O)[C@H](CCCCNC(=O)[C@H](Cc1c[nH]c2ccccc12)NC(=O)[C@@H](N)CCCNC(=N)N)NC(=O)[C@H](Cc1c[nH]c2ccccc12)NC(=O)[C@@H](N)CCCNC(=N)N)NC(=O)[C@H](CCCCNC(=O)[C@H](Cc1c[nH]c2ccccc12)NC(=O)[C@@H](N)CCCNC(=N)N)NC(=O)[C@H](Cc1c[nH]c2ccccc12)NC(=O)[C@@H](N)CCCNC(=N)N` [(RW)4D-Nonylamine] (H-RWK([Trp-Arg])K(Lys(α,ε-(ArgTrp)2))[βAla]-X1), the “MIC50 B. anthracis” value in data set [1] stood at 31.8 mg/L (≈ 16.2 µM). Also, in the data set with B. Subtilis (ATCC 6633) (ATCC 6633), the “MIC50 B. subtilis” value is 6.5 mg/L (≈ 3.3 µM). Besides, the “MIC50 S. aureus” value in data set [2] (salt not stated) was 21.6 mg/L. The “MIC50 E. coli D31” value in data set [3] came out at 26.7 mg/L. Besides, the “MIC50 A. baumannii” value in data set [4] came to 75.2 mg/L (≈ 38.2 µM). In addition, the “MIC50 E. coli” value against E. coli is 15.8 mg/L (≈ 8.03 µM).
For `NC(=O)CCNC(=O)[C@H](CCCCNC(=O)[C@H](CCCCNC(=O)[C@H](Cc1c[nH]c2ccccc12)NC(=O)[C@@H](N)Cc1c[nH]cn1)NC(=O)[C@H](Cc1c[nH]c2ccccc12)NC(=O)[C@@H](N)Cc1c[nH]cn1)NC(=O)[C@H](CCCCNC(=O)[C@H](Cc1c[nH]c2ccccc12)NC(=O)[C@@H](N)Cc1c[nH]cn1)NC(=O)[C@H](Cc1c[nH]c2ccccc12)NC(=O)[C@@H](N)Cc1c[nH]cn1` [Den(HW)4D], the “MIC50 A. baumannii” value in data set [4] stood at 82.7 mg/L (≈ 46.8 µM). Moreover, in the data set with E. coli, the “MIC50 E. coli” value was 30.6 mg/L (≈ 17.3 µM).
For `NCCCC[C@H](N)C(=O)N[C@@H](Cc1ccccc1)C(=O)NCCCC[C@H](NC(=O)[C@H](Cc1ccccc1)NC(=O)[C@@H](N)CCCCN)C(=O)NCCCC[C@H](NC(=O)[C@H](CCCCNC(=O)[C@H](Cc1ccccc1)NC(=O)[C@@H](N)CCCCN)NC(=O)[C@H](Cc1ccccc1)NC(=O)[C@@H](N)CCCCN)C(=O)NCCC(N)=O` [Den(KF)4D], the “MIC50 S. aureus” value in data set [2] (salt not stated) turned out to be 145 mg/L. Also, in data set [4], the “MIC50 A. baumannii” value amounted to 175 mg/L (≈ 111 µM). The “MIC50 E. coli” value in the data set on E. coli was 77 mg/L (≈ 48.9 µM).
Consider `NCCCC[C@H](N)C(=O)N[C@@H](Cc1c[nH]c2ccccc12)C(=O)NCCCC[C@H](NC(=O)[C@H](Cc1c[nH]c2ccccc12)NC(=O)[C@@H](N)CCCCN)C(=O)NCCCC[C@H](NC(=O)[C@H](CCCCNC(=O)[C@H](Cc1c[nH]c2ccccc12)NC(=O)[C@@H](N)CCCCN)NC(=O)[C@H](Cc1c[nH]c2ccccc12)NC(=O)[C@@H](N)CCCCN)C(=O)NCCC(N)=O` [Den(KW)4D], for which the “MIC50 S. aureus” value in data set [2] (salt not stated) came to 23.3 mg/L. The “MIC50 A. baumannii” value in [4] came to 52 mg/L (≈ 30.1 µM). The “MIC50 E. coli” value against E. coli was 30.6 mg/L (≈ 17.7 µM).
Regarding `NCCCC[C@H](N)C(=O)N[C@@H](Cc1ccc(O)cc1)C(=O)NCCCC[C@H](NC(=O)[C@H](Cc1ccc(O)cc1)NC(=O)[C@@H](N)CCCCN)C(=O)NCCCC[C@H](NC(=O)[C@H](CCCCNC(=O)[C@H](Cc1ccc(O)cc1)NC(=O)[C@@H](N)CCCCN)NC(=O)[C@H](Cc1ccc(O)cc1)NC(=O)[C@@H](N)CCCCN)C(=O)NCCC(N)=O` [Den(KY)4D], the “MIC50 S. aureus” value in data set [2] (salt not stated) is 240 mg/L. Also, in [4], the “MIC50 A. baumannii” value came out at 360 mg/L (≈ 220 µM). Besides, the “MIC50 E. coli” value against E. coli amounted to 84.4 mg/L (≈ 51.5 µM).
On the same counts, the results for `N=C(N)NCCC[C@H](N)C(=O)N[C@@H](Cc1ccc2ccccc2c1)C(=O)NCCCC[C@H](NC(=O)[C@H](Cc1ccc2ccccc2c1)NC(=O)[C@@H](N)CCCNC(=N)N)C(=O)NCCCC[C@H](NC(=O)[C@H](CCCCNC(=O)[C@H](Cc1ccc2ccccc2c1)NC(=O)[C@@H](N)CCCNC(=N)N)NC(=O)[C@H](Cc1ccc2ccccc2c1)NC(=O)[C@@H](N)CCCNC(=N)N)C(=O)NCCC(N)=O` [Den(R-2Nal)4D] are 36.0 mg/L, 51.3 mg/L (≈ 27.2 µM) and 21.5 mg/L (≈ 11.4 µM).
As to `N=C(N)NCCC[C@H](N)C(=O)N[C@@H](Cc1ccccc1)C(=O)NCCCC[C@H](NC(=O)[C@H](Cc1ccccc1)NC(=O)[C@@H](N)CCCNC(=N)N)C(=O)NCCCC[C@H](NC(=O)[C@H](CCCCNC(=O)[C@H](Cc1ccccc1)NC(=O)[C@@H](N)CCCNC(=N)N)NC(=O)[C@H](Cc1ccccc1)NC(=O)[C@@H](N)CCCNC(=N)N)C(=O)NCCC(N)=O` [Den(RF)4D], the “MIC50 S. aureus” value in [2] (salt not stated) was found to be 180 mg/L. In addition, the “MIC50 A. baumannii” value in data set [4] is 160 mg/L (≈ 94.9 µM). The “MIC50 E. coli” value in the data set with E. coli amounted to 30 mg/L (≈ 17.8 µM).
With `N=C(N)NCCC[C@H](N)C(=O)NC(Cc1c[nH]c2ccc(F)cc12)C(=O)NCCCC[C@H](NC(=O)C(Cc1c[nH]c2ccc(F)cc12)NC(=O)[C@@H](N)CCCNC(=N)N)C(=O)NCCCC[C@H](NC(=O)[C@H](CCCCNC(=O)C(Cc1c[nH]c2ccc(F)cc12)NC(=O)[C@@H](N)CCCNC(=N)N)NC(=O)C(Cc1c[nH]c2ccc(F)cc12)NC(=O)[C@@H](N)CCCNC(=N)N)C(=O)NCCC(N)=O` (some centres unmarked) [Den(RW*)4D], the “MIC50 S. aureus” value in data set [2] (salt not stated) was determined as 13 mg/L. For the same compound, in [4], the “MIC50 A. baumannii” value worked out at 35 mg/L (≈ 18.3 µM). Moreover, in the data set on E. coli, the “MIC50 E. coli” value came out at 9.3 mg/L (≈ 4.86 µM).
For the compound `N=C(N)NCCC[C@H](N)C(=O)N[C@@H](Cc1ccc(O)cc1)C(=O)NCCCC[C@H](NC(=O)[C@H](Cc1ccc(O)cc1)NC(=O)[C@@H](N)CCCNC(=N)N)C(=O)NCCCC[C@H](NC(=O)[C@H](CCCCNC(=O)[C@H](Cc1ccc(O)cc1)NC(=O)[C@@H](N)CCCNC(=N)N)NC(=O)[C@H](Cc1ccc(O)cc1)NC(=O)[C@@H](N)CCCNC(=N)N)C(=O)NCCC(N)=O` [Den(RY)4D], in [2] (salt not stated), the “MIC50 S. aureus” value was found to be 45.7 mg/L. In addition, the “MIC50 A. baumannii” value in [4] worked out at 193 mg/L (≈ 110 µM). The “MIC50 E. coli” value against E. coli is 12.6 mg/L (≈ 7.2 µM).
On to Gentamicin [reference compound], for which, in data set [1], the “MIC50 B. anthracis” value was 3.1 mg/L. Moreover, in the data set with B. Subtilis (ATCC 6633), the “MIC50 B. subtilis” value came out at 0.32 mg/L. Moreover, the “HD50 (peptide concentration corresponding to 50% hemolysis)” value in the data set with fresh sheep erythrocytes was above 2000 µg/mL. Further, the “MIC50 E. faecalis” value against E. faecalis (29212) was found to be 0.36 mg/L. The “MIC50 S. aureus” value in data set [2] (0 mM NaCl), in data set [2] (75 mM NaCl) and in data set [2] (150 mM NaCl) was 51 mg/L in each case. In addition, the “MIC50 E. coli” value in data set [3] (0 mM NaCl), in [3] (75 mM NaCl) and in [3] (150 mM NaCl) was 1.2 mg/L in each case.
Regarding “RWRWRW-NH2 (C-terminus assumed) [Hexamer, reference compound]”, in the data set with E. coli RP437 biofilms (25 μg/mL), the “Total biofilm formation compared with blank control (ANOVA)” value is “not significant”, the “Biofilm coefficients: Dead cells” value is reported as 12.29% ± 2.00%, the “Biofilm coefficients: Live cells” value is listed as 5.18% ± 1.57% and the “Biofilm coefficients: Total biofilms” value is given as 17.49% ± 2.20%. Further, in the data set on E. coli RP437 biofilms (50 μg/mL), the “Total biofilm formation compared with blank control (ANOVA)” value is listed as “significantly reduced”, the “Biofilm coefficients: Dead cells” value is 12.22% ± 2.02%, the “Biofilm coefficients: Live cells” value is 4.25% ± 1.55% and the “Biofilm coefficients: Total biofilms” value is recorded as 16.68% ± 2.11%.

Values taken from patent US7902327B2, “Dendrimeric peptides, pharmaceutical compositions and methods of using the same” (New York University School of Medicine, priority 2007, dated 2011).
